The text below walks through data of PubChem BioAssay AID330 (DTP/NCI, 2004).

Each structure is given as a SMILES string. Values joined by “and” are separate entries in the source; they are usually repeats but may differ in a detail not shown here. Equal values may be shown once. Toxic doses and inconclusive results are not listed.

This assay has as its system P388 leukemia ip, CD2F1 mice, survival T/C. As to the kind of experiment: NCI In Vivo Anticancer Drug Screen. Data for tumor model P388 Leukemia (intraperitoneal) in CD2F1 (CDF1) mice. The note with it: endpoint: median survival time, higher = longer survival. Put shortly: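 Mice carrying the transplanted tumor received test compound or vehicle. Survival was recorded in each group, and the value is the treated-group measurement divided by that of the vehicle-treated control group.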

Where [1] appears, read: dose: 25.0 mg/kg/injection, schedule: Q04DX003 (ip), vehicle: saline with Tween-80.
Setting [2] is: dose: 15.0 mg/kg/injection, schedule: Q01DX005 (ip), vehicle: saline with Tween-80.
[3] abbreviates: dose: 30.0 mg/kg/injection, schedule: Q01DX005 (ip), vehicle: saline with Tween-80.
Setting [4] is: dose: 60.0 mg/kg/injection, schedule: Q01DX005 (ip), vehicle: saline with Tween-80.
Setting [5] is: dose: 50.0 mg/kg/injection, schedule: Q01DX009 (ip), vehicle: saline with Tween-80.
Setting [6] is: dose: 100.0 mg/kg/injection, schedule: Q01DX009 (ip), vehicle: saline with Tween-80.
Where [7] appears, read: dose: 200.0 mg/kg/injection, schedule: Q01DX009 (ip), vehicle: saline with Tween-80.
The mark [8] stands for this setting: dose: 100.0 mg/kg/injection, schedule: Q01DX001 (ip), vehicle: saline with Tween-80.
The mark [9] stands for this setting: dose: 200.0 mg/kg/injection, schedule: Q01DX001 (ip), vehicle: saline with Tween-80.
Setting [10] is: dose: 400.0 mg/kg/injection, schedule: Q01DX001 (ip), vehicle: saline with Tween-80.
[11] abbreviates: dose: 50.0 mg/kg/injection, schedule: Q01DX005 (ip), vehicle: saline.
The mark [12] stands for this setting: dose: 50.0 mg/kg/injection, schedule: Q01DX005 (ip), vehicle: saline with Tween-80.

As to `C[CH2][Sn]([c]1ccccc1)([c]1ccccc1)[c]1ccccc1`, the T/C reads like this: (dose: 12.5 mg/kg/injection, schedule: Q04DX003 (ip), vehicle: saline with Tween-80) 95 % of control; under setting [1], 100 % of control; (dose: 50.0 mg/kg/injection, schedule: Q04DX003 (ip), vehicle: saline with Tween-80) 100 % of control.

For the molecule `O=NN(CCF)C(=O)NC1CCCCC1`, the T/C (dose: 16.5 mg/kg/injection, schedule: Q04DX003 (ip), vehicle: saline with Tween-80) was 209 % of control and the T/C under setting [1] is 225 % of control.

As to `CCOc1cc2c(cc1C/C=C/c1cc(OC)c(OC)c(OC)c1)OCO2`, the T/C runs as follows: under setting [2], 94 % of control; under setting [3], 95 % of control; under setting [4], 95 % of control.

For `CN=C(c1ccc(NC(=O)c2cccc(C(=O)Nc3ccc(C(=NC)N(C)C4CCCCC4)cc3)c2)cc1)N(C)C1CCCCC1`, the T/C (dose: 1.56 mg/kg/injection, schedule: Q01DX005 (ip), vehicle: Klucel (hydroxypropylcellulose) (HPC)) was 104 % of control and the T/C (dose: 3.12 mg/kg/injection, schedule: Q01DX005 (ip), vehicle: Klucel (hydroxypropylcellulose) (HPC)) was 102 % of control.

On to `COc1cc(C(=O)n2ncc(C(C)=O)c2C)cc(OC)c1OC`, for which the T/C under setting [5] is 103 % of control, the T/C under setting [6] was 106 % of control and the T/C under setting [7] was 116 % of control.

`COc1cc(OC)c2c(=O)c3cccc([N+](=O)[O-])c3n(C)c2c1`: the T/C is, setting by setting: under setting [8], 104 % of control; under setting [9], 100 % of control; under setting [10], 98 % of control.

Take `c1ccc(C23CCCCC2=Nc2ccccc23)cc1` (stereo unspecified): the T/C under setting [11] is 104 % of control; the T/C (dose: 100.0 mg/kg/injection, schedule: Q01DX005 (ip), vehicle: saline) is 105 % of control; the T/C (dose: 200.0 mg/kg/injection, schedule: Q01DX005 (ip), vehicle: saline) is 107 % of control.

As for `Cc1ccc(S(=O)(=O)CC(O)(C(C)C)C(C)C)cc1`, the T/C runs as follows: under setting [12], 103 % of control; (dose: 100.0 mg/kg/injection, schedule: Q01DX005 (ip), vehicle: saline with Tween-80) 102 % of control; (dose: 200.0 mg/kg/injection, schedule: Q01DX005 (ip), vehicle: saline with Tween-80) 102 % of control.

Regarding `COc1ccccc1N(CCCO)C(=S)Nc1ccccc1`, the T/C is 105 % of control (dose: 25.0 mg/kg/injection, schedule: Q01DX009 (ip), vehicle: other); 110 % of control (dose: 50.0 mg/kg/injection, schedule: Q01DX009 (ip), vehicle: other); 122 % of control (dose: 100.0 mg/kg/injection, schedule: Q01DX009 (ip), vehicle: other); 111 % of control (dose: 200.0 mg/kg/injection, schedule: Q01DX009 (ip), vehicle: other); 111 % of control (dose: 400.0 mg/kg/injection, schedule: Q01DX009 (ip), vehicle: other).

Consider `O=C1OC2(CCCCC2)N(c2ccccc2)C(=O)/C1=C/Nc1ccc(Cl)cc1`, for which the T/C is 98 % of control under setting [5], 99 % of control under setting [6] and 92 % of control under setting [7].

With `COC(=O)CC12CC3(C)CC(C)(C1)CC(CC(=O)OC)(C3)C2`, the T/C was 99 % of control under setting [5]; 99 % of control and 108 % of control under setting [6]; 103 % of control and 113 % of control under setting [7].

In the case of `CC(=O)c1c(O)c(C)c(C)c2c1OC(=O)C2C` (stereo unspecified), the T/C (dose: 3.12 mg/kg/injection, schedule: Q01DX009 (ip), vehicle: saline with Tween-80) is 109 % of control; the T/C (dose: 6.25 mg/kg/injection, schedule: Q01DX009 (ip), vehicle: saline with Tween-80) is 116 % of control; the T/C (dose: 12.5 mg/kg/injection, schedule: Q01DX009 (ip), vehicle: saline with Tween-80) was 108 % of control.

With `Cc1ccc(C)c2c1[nH]c1c(C)c3ccncc3c(C)c12`, the T/C was 100 % of control under setting [8], 104 % of control under setting [9] and 120 % of control under setting [10].

`CC1(C)COC2(CC3(C)CC(=O)CC3(C)C2)OC1` (stereo unspecified): the T/C under setting [5] was 105 % of control, the T/C under setting [6] was 90 % of control and the T/C under setting [7] was 102 % of control.

As to `O=NNc1nc2ncccc2cc1-c1ccccc1Cl`, the T/C is 110 % of control and 111 % of control and 124 % of control (dose: 3.12 mg/kg/injection, schedule: Q01DX009 (ip), vehicle: water); 111 % of control (dose: 6.25 mg/kg/injection, schedule: Q01DX009 (ip), vehicle: water); 108 % of control and 113 % of control (dose: 12.5 mg/kg/injection, schedule: Q01DX009 (ip), vehicle: water); 94 % of control and 95 % of control (dose: 25.0 mg/kg/injection, schedule: Q01DX009 (ip), vehicle: water).

Regarding `Cn1c(Br)c(Br)c(=O)n(C)c1=O`, the T/C (dose: 50.0 mg/kg/injection, schedule: Q01DX005 (ip), vehicle: Klucel (hydroxypropylcellulose) (HPC)) was 99 % of control; the T/C (dose: 100.0 mg/kg/injection, schedule: Q01DX005 (ip), vehicle: Klucel (hydroxypropylcellulose) (HPC)) was 100 % of control; the T/C (dose: 200.0 mg/kg/injection, schedule: Q01DX005 (ip), vehicle: Klucel (hydroxypropylcellulose) (HPC)) is 100 % of control.

Turning to `CCOC(=O)CC1NC(=O)CNC1=O` (stereo unspecified), the T/C by setting is: (dose: 60.0 mg/kg/injection, schedule: Q01DX005 (ip), vehicle: saline) 100 % of control; (dose: 120.0 mg/kg/injection, schedule: Q01DX005 (ip), vehicle: saline) 101 % of control; (dose: 240.0 mg/kg/injection, schedule: Q01DX005 (ip), vehicle: saline) 100 % of control.

For `CC1(C)CC[P+](CC[P+]2(c3ccccc3)CCC(C)(C)c3ccccc32)(c2ccccc2)c2ccccc21` (stereo unspecified), the T/C (dose: 0.75 mg/kg/injection, schedule: Q01DX005 (ip), vehicle: saline) was 103 % of control; the T/C (dose: 1.5 mg/kg/injection, schedule: Q01DX005 (ip), vehicle: saline) was 101 % of control; the T/C (dose: 3.0 mg/kg/injection, schedule: Q01DX005 (ip), vehicle: saline) is 103 % of control; the T/C (dose: 3.12 mg/kg/injection, schedule: Q01DX005 (ip), vehicle: suspension in saline) was 89 % of control; the T/C (dose: 12.5 mg/kg/injection, schedule: Q01DX005 (ip), vehicle: saline with Tween-80) was 100 % of control; the T/C (dose: 25.0 mg/kg/injection, schedule: Q01DX005 (ip), vehicle: saline with Tween-80) was 100 % of control. In addition, the T/C under setting [12] was 102 % of control.

Regarding `C[Si](OC(=O)N(CCCl)CCCl)(c1ccccc1)c1ccccc1`, the T/C was 103 % of control (dose: 3.12 mg/kg/injection, schedule: Q01DX009 (ip), vehicle: Klucel (hydroxypropylcellulose) (HPC)); 106 % of control (dose: 6.25 mg/kg/injection, schedule: Q01DX009 (ip), vehicle: Klucel (hydroxypropylcellulose) (HPC)); 113 % of control (dose: 12.5 mg/kg/injection, schedule: Q01DX009 (ip), vehicle: Klucel (hydroxypropylcellulose) (HPC)).

In the case of `CCOC(=O)Nc1cc(NC/C(=N/O)c2ccc(OC)cc2)c([N+](=O)[O-])c(N)n1`, the T/C reads like this: (dose: 12.5 mg/kg/injection, schedule: Q01DX005 (ip), vehicle: saline) 98 % of control; (dose: 25.0 mg/kg/injection, schedule: Q01DX005 (ip), vehicle: saline) 94 % of control; under setting [11], 94 % of control.

Regarding `CN(C)CCOC(=O)Nc1ccc(Cc2ccc(NC(=O)OCCN(C)C)cc2)cc1`, the T/C was 109 % of control under setting [2]; 101 % of control under setting [3]; 101 % of control and 109 % of control under setting [4].

As for `COc1ccc(NC(=O)Oc2ccc(C#N)cc2)cc1`, the T/C was 108 % of control and 98 % of control (dose: 7.5 mg/kg/injection, schedule: Q01DX005 (ip), vehicle: Klucel (hydroxypropylcellulose) (HPC)); 112 % of control and 98 % of control (dose: 15.0 mg/kg/injection, schedule: Q01DX005 (ip), vehicle: Klucel (hydroxypropylcellulose) (HPC)); 105 % of control and 108 % of control (dose: 30.0 mg/kg/injection, schedule: Q01DX005 (ip), vehicle: Klucel (hydroxypropylcellulose) (HPC)); 116 % of control and 123 % of control (dose: 60.0 mg/kg/injection, schedule: Q01DX005 (ip), vehicle: Klucel (hydroxypropylcellulose) (HPC)); 117 % of control (dose: 120.0 mg/kg/injection, schedule: Q01DX005 (ip), vehicle: Klucel (hydroxypropylcellulose) (HPC)).

For `COc1nc(NCC(C)O)nc(NCC(C)O)n1` (stereo unspecified), the T/C reads like this: (dose: 50.0 mg/kg/injection, schedule: Q01DX009 (ip), vehicle: saline) 100 % of control; (dose: 100.0 mg/kg/injection, schedule: Q01DX009 (ip), vehicle: saline) 89 % of control; (dose: 200.0 mg/kg/injection, schedule: Q01DX009 (ip), vehicle: saline) 99 % of control.
